The source made the active and inactive calls.
How the values were obtained:
[1] = Luminescence Cell-Based Dose Confirmation HTS to Identify Activators of 5'UTR Stem-Loop Driven Alpha-Synuclein mRNA Translation in H4 Neuroglioblastoma Cells. [Related pubchem assays: 1829 (Project Summary), 1814 (Primary HTS)]; type: functional
[2] = Luminescence Cell-Based Dose Response HTS to Identify Activators of Luciferase Translation or Activity in H4 […] Cells. [Related pubchem assays: 1829 (Project Summary), 1814 (Primary HTS)]; type: functional
[3] = test system: H4; assay: Luminescence Cell-Based Dose Response HTS to Identify Activators of 5'UTR Stem-Loop Driven Prion Protein mRNA Translation in H4 Neuroglioblastoma Cells. [Related pubchem assays: 1829 (Project Summary), 1814 (Primary HTS)]; type: functional; settings: Homo sapiens
[4] = molecular target: T1, Caspase-3 (Homo sapiens, UniProt P42574); type: functional;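 further: Dose-response selectivity test against caspase-3 for candidate inhibitors of sentrin-specific proteases (SENPs)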
T1 sequence (P42574 whole entry): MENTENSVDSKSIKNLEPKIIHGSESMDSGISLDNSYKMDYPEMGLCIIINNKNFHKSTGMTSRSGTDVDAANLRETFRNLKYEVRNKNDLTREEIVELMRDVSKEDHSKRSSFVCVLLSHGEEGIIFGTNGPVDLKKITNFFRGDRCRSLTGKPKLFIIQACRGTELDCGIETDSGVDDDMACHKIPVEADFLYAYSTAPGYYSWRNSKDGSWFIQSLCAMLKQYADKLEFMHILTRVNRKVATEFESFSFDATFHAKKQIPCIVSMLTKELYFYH

[5] = molecular target: T2, Sentrin-specific protease 7 (Homo sapiens, UniProt Q9BQF6); type: functional;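 further: Luminescence-based dose-response confirmation of ultra-high-throughput screening hits, measuring inhibition of SENP7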
T2 sequence (Q9BQF6 whole entry): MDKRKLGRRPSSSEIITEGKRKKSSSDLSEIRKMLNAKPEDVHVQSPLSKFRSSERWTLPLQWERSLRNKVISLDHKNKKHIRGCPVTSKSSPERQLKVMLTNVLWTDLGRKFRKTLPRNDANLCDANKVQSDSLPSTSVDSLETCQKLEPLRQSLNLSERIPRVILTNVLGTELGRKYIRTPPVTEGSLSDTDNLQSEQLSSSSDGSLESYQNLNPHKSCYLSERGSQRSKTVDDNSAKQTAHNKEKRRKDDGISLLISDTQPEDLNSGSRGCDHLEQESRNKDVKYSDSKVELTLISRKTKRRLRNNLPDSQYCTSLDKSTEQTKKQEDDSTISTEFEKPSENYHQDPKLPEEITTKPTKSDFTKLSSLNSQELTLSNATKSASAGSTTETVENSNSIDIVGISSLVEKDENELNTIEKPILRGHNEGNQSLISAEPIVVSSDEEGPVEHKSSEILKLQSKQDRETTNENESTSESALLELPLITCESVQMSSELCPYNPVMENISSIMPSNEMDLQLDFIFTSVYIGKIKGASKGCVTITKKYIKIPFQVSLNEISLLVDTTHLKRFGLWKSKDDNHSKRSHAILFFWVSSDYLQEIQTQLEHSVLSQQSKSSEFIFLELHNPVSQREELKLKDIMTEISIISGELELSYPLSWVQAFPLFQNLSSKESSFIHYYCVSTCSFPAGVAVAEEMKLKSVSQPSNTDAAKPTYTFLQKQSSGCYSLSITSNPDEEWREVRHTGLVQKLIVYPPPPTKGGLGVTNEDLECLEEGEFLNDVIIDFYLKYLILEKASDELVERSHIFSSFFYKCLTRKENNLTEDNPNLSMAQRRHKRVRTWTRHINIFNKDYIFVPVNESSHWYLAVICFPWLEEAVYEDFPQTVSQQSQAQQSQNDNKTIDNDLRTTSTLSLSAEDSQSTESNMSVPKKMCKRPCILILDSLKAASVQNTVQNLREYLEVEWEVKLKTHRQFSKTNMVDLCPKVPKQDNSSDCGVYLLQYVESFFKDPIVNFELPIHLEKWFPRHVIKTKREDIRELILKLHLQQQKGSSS

[6] = molecular target: T3, Sentrin-specific protease 6 (Homo sapiens, UniProt Q9GZR1); type: functional;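 further: Luminescence-based dose-response confirmatory assay of SENP6 inhibition, following up an ultra-high-throughput screen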
T3 sequence (Q9GZR1 whole entry): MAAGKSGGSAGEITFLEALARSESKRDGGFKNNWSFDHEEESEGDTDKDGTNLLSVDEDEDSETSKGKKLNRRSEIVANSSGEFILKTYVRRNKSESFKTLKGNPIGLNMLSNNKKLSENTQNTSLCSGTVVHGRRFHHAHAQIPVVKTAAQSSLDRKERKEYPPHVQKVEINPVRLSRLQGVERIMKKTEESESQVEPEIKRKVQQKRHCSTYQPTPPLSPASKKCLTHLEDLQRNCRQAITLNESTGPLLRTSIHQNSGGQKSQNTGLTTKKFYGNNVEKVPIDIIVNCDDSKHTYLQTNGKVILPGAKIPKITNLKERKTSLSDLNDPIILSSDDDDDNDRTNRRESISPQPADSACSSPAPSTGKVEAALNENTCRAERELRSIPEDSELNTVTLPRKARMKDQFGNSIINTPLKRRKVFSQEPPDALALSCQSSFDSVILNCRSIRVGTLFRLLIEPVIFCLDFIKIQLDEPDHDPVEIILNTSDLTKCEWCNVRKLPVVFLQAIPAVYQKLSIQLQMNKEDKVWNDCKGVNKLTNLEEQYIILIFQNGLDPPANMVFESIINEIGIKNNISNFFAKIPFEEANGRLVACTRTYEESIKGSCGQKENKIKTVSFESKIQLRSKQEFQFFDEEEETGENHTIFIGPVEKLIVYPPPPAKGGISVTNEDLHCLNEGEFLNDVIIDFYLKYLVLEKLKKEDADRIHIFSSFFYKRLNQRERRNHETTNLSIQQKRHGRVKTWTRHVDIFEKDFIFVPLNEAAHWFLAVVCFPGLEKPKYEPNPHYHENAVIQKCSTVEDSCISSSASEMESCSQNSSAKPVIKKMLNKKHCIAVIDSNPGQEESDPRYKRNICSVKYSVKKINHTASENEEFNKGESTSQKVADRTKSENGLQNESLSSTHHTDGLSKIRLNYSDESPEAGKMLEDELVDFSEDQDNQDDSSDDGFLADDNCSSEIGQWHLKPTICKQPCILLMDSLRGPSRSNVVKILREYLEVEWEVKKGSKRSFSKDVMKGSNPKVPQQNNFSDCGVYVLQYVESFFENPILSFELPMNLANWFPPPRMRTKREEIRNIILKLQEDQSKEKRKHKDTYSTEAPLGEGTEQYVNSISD

[7] = molecular target: T4, Sentrin-specific protease 8 (Homo sapiens, UniProt Q96LD8); type: functional;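 further: luminescence read-out of SENP8 inhibition, dose-response confirmation following an ultra-high-throughput screen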
T4 sequence (Q96LD8 whole entry): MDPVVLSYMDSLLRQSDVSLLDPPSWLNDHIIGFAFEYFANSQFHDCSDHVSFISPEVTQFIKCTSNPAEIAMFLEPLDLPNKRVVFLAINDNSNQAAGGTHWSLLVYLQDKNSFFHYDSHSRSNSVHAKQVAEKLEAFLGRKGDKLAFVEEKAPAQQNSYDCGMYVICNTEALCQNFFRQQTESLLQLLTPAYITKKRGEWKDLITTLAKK

[8] = test system: P388/ADR; assay: cells; type: functional; settings: Mus musculus
[9] = test system: SN12K1; assay: cells; type: functional; settings: Homo sapiens
[10] = test system: P388; assay: cells; type: functional; settings: Mus musculus
[11] = molecular target: T5, Histone-lysine N-methyltransferase NSD2 (Homo sapiens, UniProt O96028); type: biochemical
T5 sequence (O96028 whole entry): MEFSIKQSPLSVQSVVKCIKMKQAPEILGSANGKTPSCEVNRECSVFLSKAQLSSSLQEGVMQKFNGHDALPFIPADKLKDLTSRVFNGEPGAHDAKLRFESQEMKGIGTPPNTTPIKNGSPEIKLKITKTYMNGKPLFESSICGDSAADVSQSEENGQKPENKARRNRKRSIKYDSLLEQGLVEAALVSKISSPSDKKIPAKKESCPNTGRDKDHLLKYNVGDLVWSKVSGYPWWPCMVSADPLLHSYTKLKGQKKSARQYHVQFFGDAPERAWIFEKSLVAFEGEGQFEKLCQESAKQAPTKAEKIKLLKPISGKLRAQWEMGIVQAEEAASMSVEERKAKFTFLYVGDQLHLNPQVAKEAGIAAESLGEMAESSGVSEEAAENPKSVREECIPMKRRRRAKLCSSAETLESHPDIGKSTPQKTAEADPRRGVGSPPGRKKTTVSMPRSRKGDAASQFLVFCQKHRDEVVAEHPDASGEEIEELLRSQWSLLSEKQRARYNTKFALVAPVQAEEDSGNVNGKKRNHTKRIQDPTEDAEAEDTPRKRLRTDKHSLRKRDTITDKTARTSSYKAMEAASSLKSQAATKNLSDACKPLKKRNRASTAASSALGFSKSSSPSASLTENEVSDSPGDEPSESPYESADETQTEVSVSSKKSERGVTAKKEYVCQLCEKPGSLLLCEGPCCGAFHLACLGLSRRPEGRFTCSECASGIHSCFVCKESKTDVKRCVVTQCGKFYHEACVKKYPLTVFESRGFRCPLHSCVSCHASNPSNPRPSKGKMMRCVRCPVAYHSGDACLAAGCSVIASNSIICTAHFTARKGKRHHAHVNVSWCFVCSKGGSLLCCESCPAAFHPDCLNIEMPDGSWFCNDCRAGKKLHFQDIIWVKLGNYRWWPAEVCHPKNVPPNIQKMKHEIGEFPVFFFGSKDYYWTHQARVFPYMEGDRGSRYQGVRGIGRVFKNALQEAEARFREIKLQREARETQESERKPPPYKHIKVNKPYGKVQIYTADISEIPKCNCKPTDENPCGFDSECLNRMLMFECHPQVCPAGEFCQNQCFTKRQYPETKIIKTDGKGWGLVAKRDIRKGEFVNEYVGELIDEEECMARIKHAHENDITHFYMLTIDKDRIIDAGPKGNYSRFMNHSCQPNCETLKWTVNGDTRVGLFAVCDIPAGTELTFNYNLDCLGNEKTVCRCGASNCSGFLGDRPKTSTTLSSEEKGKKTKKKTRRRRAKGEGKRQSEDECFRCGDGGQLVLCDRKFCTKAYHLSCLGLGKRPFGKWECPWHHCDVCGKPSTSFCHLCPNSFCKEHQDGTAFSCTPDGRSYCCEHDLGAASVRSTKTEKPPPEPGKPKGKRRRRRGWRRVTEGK

[12] = molecular target: Cytochrome P450 3A4 (Homo sapiens, UniProt P08684);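 further: CYP3A4 tested as one member of a cytochrome P450 panel screen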
Chain of Cytochrome P450 3A4 (P08684 whole entry): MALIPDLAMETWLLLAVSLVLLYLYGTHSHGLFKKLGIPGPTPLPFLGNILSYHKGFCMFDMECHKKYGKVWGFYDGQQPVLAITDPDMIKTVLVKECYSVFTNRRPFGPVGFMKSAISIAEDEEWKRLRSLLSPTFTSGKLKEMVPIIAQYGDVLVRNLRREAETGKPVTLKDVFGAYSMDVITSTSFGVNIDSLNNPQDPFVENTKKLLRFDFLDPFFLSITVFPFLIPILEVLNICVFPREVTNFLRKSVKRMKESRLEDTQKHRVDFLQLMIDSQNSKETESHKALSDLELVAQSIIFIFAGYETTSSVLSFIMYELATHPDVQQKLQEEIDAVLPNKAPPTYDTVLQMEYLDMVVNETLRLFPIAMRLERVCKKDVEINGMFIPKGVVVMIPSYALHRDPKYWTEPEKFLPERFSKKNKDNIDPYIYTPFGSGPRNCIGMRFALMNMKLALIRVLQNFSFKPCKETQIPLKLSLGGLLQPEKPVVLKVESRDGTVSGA

CCCCN1C(=O)C(=O)N(CC(=O)N2N=C3/C(=C/c4ccco4)CCCC3C2c2ccco2)C1=O (configuration not stated)
EC50 [1]: > 120 µM (not active) | EC50 [2]: 14.8 µM (active) | EC50 [3]: 19.6 µM (active)

O=C(c1ccccc1)c1ccc(Cn2cc(-c3ccccc3)nn2)cc1
IC50 [4]: 32.3 µM (active) | IC50 [5]: 5.67 µM (active) | IC50 [6]: 19.5 µM (active) | IC50 [7]: 23.9 µM (active)

COc1ccc2cc(C(=O)NCCc3ccccc3)[nH]c2c1
EC50 [1]: 43.2 µM (active) | EC50 [2]: 48 µM (active) | EC50 [3]: 99.5 µM (active)

O=C(Nc1ccccc1[N+](=O)[O-])C1COc2ccccc2O1 (configuration not stated)
EC50 [1]: 0.244 µM (active) | EC50 [2]: > 120 µM (not active) | EC50 [3]: 6.61 µM (active)

Cc1ccccc1NS(=O)(=O)c1cccc(C(=O)Nc2cccc(C(=O)O)c2)c1
IC50 [4]: 66.7 µM (active) | IC50 [5]: 9.34 µM (active) | IC50 [6]: 23.3 µM (active) | IC50 [7]: 23.7 µM (active)

COC1=C(C)C(=O)C2=C(C1=O)C1C3CC4=C(C(=O)C(OC)=C(C)C4=O)C(CNC(=O)C(C)=O)N3C(C#N)C(C2)N1C (configuration not stated)
GI50 [8]: 0.0448 µM (active) | GI50 [9]: < 0.01 µM (active) | GI50 [10]: 0.01 µM (active) | AC50 [11]: 8.92 µM (active)

CN(C)/N=N/c1ccc([N+](=O)[O-])cc1C(N)=O
GI50 [8]: > 100 µM (inactive) | GI50 [9]: > 100 µM (inactive) | GI50 [10]: > 100 µM (inactive)

COc1cc(Cc2nccc3cc(OC)c(OC)cc23)c(C(C)=O)cc1OC
GI50 [8]: 14.5 µM (inactive) | GI50 [9]: 20.4 µM (inactive) | GI50 [10]: 1.66 µM (inactive)

NC1=NCN(C2OC(CO)C(O)C2O)C(=O)N1 (configuration not stated)
GI50 [8]: 10.4 µM (inactive) | GI50 [9]: 13.9 µM (inactive) | GI50 [10]: 8.57 µM (inactive)

CCCn1cc2c3c(cccc31)C1C=C(C)CN(C)C1C2 (configuration not stated)
GI50 [8]: 3.34 µM (inactive) | GI50 [9]: 14.2 µM (inactive) | GI50 [10]: 5.69 µM (inactive)

COc1ccccc1C(=O)N/N=C(\C)c1ccc(NC(=O)Cc2ccccc2)cc1
EC50 [1]: > 120 µM (not active) | EC50 [2]: > 120 µM (not active) | EC50 [3]: > 120 µM (not active)

C=C1C(=O)O[C@@H]2[C@H]3O[C@]3(C)CCC=C(C)CC[C@@H]12
GI50 [8]: 4.84 µM (inactive) | GI50 [9]: 16.4 µM (inactive) | GI50 [10]: 6.59 µM (inactive) | AC50 [12]: 10 µM (inconclusive)

CCC1(O)C(=O)OCc2c1cc1n(c2=O)Cc2cc3cc4c(cc3nc2-1)OCO4 (configuration not stated)
GI50 [8]: < 0.01 µM (active) | GI50 [9]: < 0.01 µM (active) | GI50 [10]: < 0.01 µM (active)

C=C(C)C(O)CC/C(C)=C/Cc1c(O)ccc(C(=O)/C=C/c2ccc(O)cc2)c1O (configuration not stated) [XANTHOANGELOL B]
IC50 [4]: 28.1 µM (active) | IC50 [5]: 3.39 µM (active) | IC50 [6]: 4.22 µM (active) | IC50 [7]: 5.08 µM (active)

Reference: ChEMBL document CHEMBL1201862, “PubChem BioAssay data set” (2004)
